Biological target: T1, human CRHR2-alpha (Homo sapiens, UniProt Q13324)
T1 sequence (Q13324 1-411): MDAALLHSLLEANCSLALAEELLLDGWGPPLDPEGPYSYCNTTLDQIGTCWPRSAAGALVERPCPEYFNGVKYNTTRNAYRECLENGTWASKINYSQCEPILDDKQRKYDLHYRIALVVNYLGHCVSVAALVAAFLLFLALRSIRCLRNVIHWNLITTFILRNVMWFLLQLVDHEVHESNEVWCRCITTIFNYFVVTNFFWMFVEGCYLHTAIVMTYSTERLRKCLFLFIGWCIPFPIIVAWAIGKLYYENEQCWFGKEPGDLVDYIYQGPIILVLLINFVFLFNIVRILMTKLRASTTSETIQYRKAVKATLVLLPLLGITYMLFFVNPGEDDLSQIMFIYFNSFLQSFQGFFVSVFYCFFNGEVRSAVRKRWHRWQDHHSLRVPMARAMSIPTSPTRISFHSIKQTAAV
Assay: cAMP functional assay for human CRHR2 (LANCE Ultra cAMP, TR-FRET)
Type: cell-based
Details: CHO-K1 cells expressing human CRHR2-alpha, agonist human urocortin2 at EC80, cAMP; read-out: IC50 against CRHR2
How it was run: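 Antagonism measured in CHO-K1 cells stably expressing the receptor, serum-starved 7 h then cryopreserved. Thawed cells in HBSS buffer with 0.1% BSA, 0.5 mM IBMX, 5 mM Hepes pH 7.4 were preincubated with compound 30 min at 25° C, then stimulated 30 min with EC80 agonist: urocortin2 for CRHR2, CRF for CRHR1.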

Row | SMILES | IC50 [µM]
1 | CNC(=O)c1ccc(-n2c(=O)n(C[C@H]3CC[C@H](NC(=O)c4cc(C(F)(F)F)cnc4C)CC3)c3ccccc32)cn1 [Example 491, N-methyl-5-(3-(((1r,4r)-4-(2-methyl-5-(trifluoromethyl)nicotinamido)cyclohexyl)methyl)-2-oxo-2,3-dihydro-1H-benzo[d]imidazol-1-yl) picolinamide] | < 0.3
2 | CNC(=O)c1ccc(-n2c(=O)n(C[C@H]3CC[C@H](NC(=O)c4cc(C)ccc4C(F)(F)F)CC3)c3ccccc32)cn1 [Example 492, N-methyl-5-(3-(((1r,4r)-4-(5-methyl-2-(trifluoro-methyl)benzamido)cyclo-hexyl)methyl)-2-oxo-2,3-dihydro-1H-benzo[d]imidazol-1-yl)picolinamide] | < 0.3
3 | O=C(N[C@H]1CC[C@H](Cn2c(=O)n(-c3ccncc3Cl)c3ncccc32)CC1)c1cc(Cl)cnc1C(F)F [Example 496, 5-chloro-N-((1r,4r)-4-((3-(3-chloropyridin-4-yl)-2-oxo-2,3-dihydro-1H-imidazo[4,5-b]pyridin-1-yl)methyl)cyclohexyl)-2-(difluoromethyl)nicotinamide] | < 0.3
4 | Cc1ncc(Cl)cc1C(=O)N[C@H]1CC[C@H](Cn2c(=O)n(-c3ccc4c(c3)cc(CO)n4C)c3ccccc32)CC1 [Example 497, 5-chloro-N-((1r,4r)-4-((3-(2-(hydroxymethyl)-1-methyl-1H-indol-5-yl)-2-oxo-2,3-dihydro-1H-benzo[d]imidazol-1-yl)methyl)cyclohexyl)-2-methylnicotinamide] | < 0.3
5 | N#Cc1ccccc1-n1c(=O)n(C[C@H]2CC[C@H](NC(=O)c3cc(Cl)cnc3C(F)F)CC2)c2ccccc21 [Example 499, 5-chloro-N-((1r,4r)-4-((3-(2-cyanophenyl)-2-oxo-2,3-dihydro-1H-benzo[d]imidazol-1-yl)methyl)cyclo-hexyl)-2-(difluoromethyl) nicotinamide] | < 0.3
6 | Cc1ccc(-n2c(=O)n(C[C@H]3CC[C@H](NC(=O)c4cc(Cl)cnc4C(F)F)CC3)c3nccnc32)cc1 [Example 506, 5-chloro-2-(difluoromethyl)-N-((1r,4r)-4-((2-oxo-3-(p-tolyl)-2,3-dihydro-1H-imidazo[4,5-b]pyrazin-1-yl)methyl)cyclohexyl)nicotinamide] | < 0.3
7 | COc1ccc(C#N)c(-n2c(=O)n(C[C@H]3CC[C@H](NC(=O)c4cc(Cl)cnc4C(F)F)CC3)c3cccnc32)c1 [Example 507, 5-chloro-N-((1r,4r)-4-((3-(2-cyano-5-methoxyphenyl)-2-oxo-2,3-dihydro-1H-imidazo [4,5-b]pyridin-1-yl)methyl)cyclohexyl)-2-(difluoromethyl) nicotinamide] | < 0.3
8 | Cc1ncc(Cl)cc1C(=O)N[C@H]1CC[C@H](Cn2c(=O)n(-c3ccc(-n4ccnn4)nc3)c3ccccc32)CC1 [Example 511, N-((1r,4r)-4-((3-(6-(1H-1,2,3-triazol-1-yl)pyridin-3-yl)-2-oxo-2,3-dihydro-1H-benzo[d]imidazol-1-yl)methyl)cyclohexyl)-5-chloro-2-methylnicotinamide] | < 0.3

More lines, now with the values ahead:

Row | IC50 [µM] | SMILES
9 | < 0.3 | O=C(N[C@H]1CC[C@H](Cn2c(=O)n(-c3ccc4nccnc4c3)c3ccccc32)CC1)c1cc(Cl)cnc1C(F)F [Example 495, 5-chloro-2-(difluoromethyl)-N-((1r,4r)-4-((2-oxo-3-(quinoxalin-6-yl)-2,3-dihydro-1H-benzo[d]imidazol-1-yl)methyl)cyclo-hexyl)nicotinamide]
10 | < 0.3 | O=C(N[C@H]1CC[C@H](Cn2c(=O)n(-c3ccc(N4CCCC4=O)nc3)c3ccccc32)CC1)c1cc(Cl)cnc1C(F)F [Example 498, 5-chloro-2-(difluoromethyl)-N-((1r,4r)-4-((2-oxo-3-(6-(2-oxopyrrolidin-1-yl)pyridin-3-yl)-2,3-dihydro-1H-benzo[d]imidazol-1-yl)methyl)cyclohexyl)nicotinamide]
11 | < 0.3 | CNC(=O)COc1ccc(-n2c(=O)n(C[C@H]3CC[C@H](NC(=O)c4cc(Cl)cnc4C(F)F)CC3)c3ccccc32)cn1 [Example 500, 5-chloro-2-(difluoromethyl)-N-((1r,4r)-4-((3-(6-(2-(methylamino)-2-oxoethoxy)pyridin-3-yl)-2-oxo-2,3-dihydro-1H-benzo[d]imidazol-1-yl)methyl)cyclohexyl)nicotinamide]
12 | < 0.3 | O=C(N[C@H]1CC[C@H](Cn2c(=O)n(-c3ccc(N4CCC4=O)nc3)c3ccccc32)CC1)c1cc(Cl)cnc1C(F)F [Example 501, 5-chloro-2-(difluoromethyl)-N-((1r,4r)-4-((2-oxo-3-(6-(2-oxoazetidin-1-yl)pyridin-3-yl)-2,3-dihydro-1H-benzo [d]imidazol-1-yl)methyl)cyclo-hexyl)nicotinamide]
13 | < 0.3 | O=C(N[C@H]1CC[C@H](Cn2c(=O)n(-c3ccc(NC(=O)C4CC4)nc3)c3ccccc32)CC1)c1cc(Cl)cnc1C(F)F [Example 502, 5-chloro-N-((1r,4r)-4-((3-(6-(cyclopropanecarboxa-mido)pyridin-3-yl)-2-oxo-2,3-dihydro-1H-benzo[d]imidazol-1-yl)methyl)cyclohexyl)-2-(difluoro-methyl)nicotinamide]
14 | < 0.3 | C[C@@H](Oc1ccc(-n2c(=O)n(C[C@H]3CC[C@H](NC(=O)c4cc(Cl)cnc4C(F)F)CC3)c3ccccc32)cn1)C(N)=O [Example 504, N-((1R,4r)-4-((3-(6-(((R)-1-amino-1-oxopropan-2-yl)oxy)pyridin-3-yl)-2-oxo-2,3-dihydro-1H-benzo[d]imidazol-1-yl)methyl)cyclohexyl)-5-chloro-2-(difluoromethyl) nicotinamide]
15 | < 0.3 | O=C(N[C@H]1CC[C@H](Cn2c(=O)n(-c3ccc(N4CCOCC4=O)nc3)c3ccccc32)CC1)c1cc(Cl)cnc1C(F)F [Example 505, 5-chloro-2-(difluoromethyl)-N-((1r,4r)-4-((2-oxo-3-(6-(3-oxomorpholino)pyridin-3-yl)-2,3-dihydro-1H-benzo[d]imidazol-1-yl)methyl)cyclo-hexyl)nicotinamide]
16 | < 0.3 | CC(=O)Nc1ccc(-n2c(=O)n(C[C@H]3CC[C@H](NC(=O)c4cc(Cl)cnc4C(F)F)CC3)c3ccccc32)cn1 [Example 508, N-((1r,4r)-4-((3-(6-aceta-midopyridin-3-yl)-2-oxo-2,3-dihydro-1H-benzo[d]imidazol-1-yl)methyl)cyclo-hexyl)-5-chloro-2-(difluoro-methyl)nicotinamide]
17 | < 0.3 | O=C(N[C@H]1CC[C@H](Cn2c(=O)n(-c3ccc(N4CCCCC4=O)nc3)c3ccccc32)CC1)c1cc(Cl)cnc1C(F)F [Example 509, 5-chloro-2-(difluoromethyl)-N-((1r,4r)-4-((2-oxo-3-(6-(2-oxopiperidin-1-yl)pyridin-3-yl)-2,3-dihydro-1H-benzo[d]imidazol-1-yl)methyl)cyclohexyl)nicotinamide]
18 | < 0.3 | CCC(=O)Nc1ccc(-n2c(=O)n(C[C@H]3CC[C@H](NC(=O)c4cc(Cl)cnc4C(F)F)CC3)c3ccccc32)cn1 [Example 510, 5-chloro-2-(difluoromethyl)-N-((1r,4r)-4-((2-oxo-3-(6-propionamidopyridin-3-yl)-2,3-dihydro-1H-benzo[d]imidazol-1-yl)methyl)cyclo-hexyl)nicotinamide]

Source: patent publication US11802120B2, “Fused cyclic urea derivatives as CRHR2 antagonist” (RaQualia Pharma Inc., priority 2018, dated 2023)
